According to patent US20050267136A1, “Method of inhibiting dihydrofolate reductase; screening assay for the identification of novel therapeutics and their cellular targets” (McMaster University, priority 2003, published 2005):
≈ marks a conversion by molar mass, not a printed value. Where two headings read alike, the source gives them in different places.

Key:
[1] = tested on: E. coli MC1061; test: Minimum inhibitory concentration determination in LB broth; format: cell-based, Escherichia coli
[2] = biological target: T1, E. coli DHFR (Escherichia coli, UniProt P0ABQ4); test: DHF reductase activity assay of recombinant E. coli DHFR (decrease of NADPH at 340 nm); primary screen and IC50 determination; format: biochemical; details: true competitive inhibitor should equal 2.8
T1 construct: The gene was cloned lacking a stop codon into NdeI and XhoI digested pET26b to form pET26b-folA; made in house

[3] = biological target: T1, E. coli DHFR; test: Determination of kinetic inhibition constants; format: biochemical; details: NADPH 80 μM, dihydrofolate 10 to 300 μM, competitive inhibition
[4] = tested on: E. coli MC1061 clones harboring pGEM7-acrB; format: cell-based, Escherichia coli; details: from MIC in LB-Str-Amp, relative to E. coli MC1061 containing pGEM7
[5] = tested on: E. coli strain MC1061; test: Duplicate screen of 1000 Maybridge compounds for growth inhibition; format: cell-based, Escherichia coli; details: 10 μL of 1 mM compound in 200 μL/well, 36 hours at 37° C., OD 600 nm
Experimental: In addition to proof of principle work using well-characterized antibiotics a preliminary screen against a 1000 compound, non-proprietary commercial library from Maybridge (Cornwall, England) was also done. First the identification of compounds with activity against E. coli by screening for inhibition of growth was done. […] To each test well 10 μL of screening compound (1 mM in DMSO) was added and the plate incubated for 36 hours at 37° C. with shaking (150 rpm) before reading the optical density (600 nm). […] The result of this duplicate screen was the identification of 15 compounds with statistically significant antibacterial activity.

[6] = tested on: E. coli strain MC1061; test: Retest minimum inhibitory concentration on LB-ST agar; details: Escherichia coli, MC1061, read-out: Retest Minimum Inhibitory Concentration
[7] = tested on: E. coli CW2553 containing pAK01 and pBAD18-folA (strain EB492); details: increasing DHFR expression from pBAD18-folA
[8] = tested on: MC1061 transformed with the genomic library (the screening pool); format: cell-based, Escherichia coli; details: LB agar-ST; concentration lethal to MC1061
[9] = tested on: E. coli MC1061/pGEM7; test: microbe, parasite or virus in culture; format: cell-based, Escherichia coli; details: for MIC: Escherichia coli, MC1061/PGEM7, read-out: MIC, minimum growth inhibitory concentration
[10] = tested on: E. coli MC1061 harboring a multicopy genomic library cloned into pGEM7; test: Multicopy suppression selection with the selection pool, Example 5; format: cell-based, Escherichia coli; details: LB-Str-Amp agar, 10^5 cells
[11] = tested on: S. cerevisiae DL1 (His, Leu, Ura)/pGAL; test: MIC of compounds versus yeast; format: cell-based; details: Saccharomyces cerevisiae; agar plates, 72 hours, read visually
[12] = 16 hr at 37° C., OD600 less than 0.1
[13] = Escherichia coli, MC1061, 16 hr at 37° C., OD600 less than 0.1, read-out: MIC

SMILES	MIC [1, 13]	Growth in Primary Screens, first value of the duplicate [5]	Growth in Primary Screens, second value of the duplicate [5]	MIC [6]	further results
Nc1nc(N)c2c(Sc3ccc(Cl)cc3)cccc2n1 [Compound 2]	4 µg/mL (≈ 13.2 µM)				MIC [1, 12]: 4.0 µg/mL (≈ 13.2 µM)
Cc1ccc(Sc2cccc3nc(N)nc(N)c23)cc1 [Compound 1]	8 µg/mL (≈ 28.3 µM)				
CC1CCc2c(N)nc(N)nc2C1 (stereo not drawn) [Compound 6]	64 µg/mL (≈ 359 µM)				IR, IC50 ratio (IC50 in the presence of 100 μM DHF) / (IC50 in the presence of 30 μM DHF) [2]: 2.3; Ki [3]: 1100 nM; fold suppression by pGEM7-acrB [4]: 4 fold
Nc1nc(-c2ccc(-n3cccc3)cc2)cc(C(F)(F)F)n1 [BTB14887]		37%	30%	125 µg/mL (≈ 411 µM)	
CSC(=N)NC(=S)Nc1cccc(Cl)c1 [RJF01047]		6.0%	12%	125 µg/mL (≈ 481 µM)	
Cc1ccc(Oc2cccc3nc(N)nc(N)c23)cc1 [Compound 4]	4 µg/mL (≈ 15 µM)				MIC [1, 12]: 4.0 µg/mL (≈ 15 µM); dependence of the MIC on arabinose (inducer) concentration [7]: demonstrated an inducer dependence
Clc1ccc(Cc2n[nH]cc2Sc2ccc(Cl)cc2)cc1 [SPB04137]		2.3%	2.1%	500 µg/mL (≈ 1490 µM)	
O=C(Oc1c(Cl)cc(Cl)c2cccnc12)c1cccs1 [RH00852]		2.7%	2.8%	16 µg/mL (≈ 49.4 µM)	
C[C@@H]1O[C@@H]1P(=O)(O)O [Fosfomycin]					growth inhibitory concentration to which clones isolated from the screening pool were resistant [8]: 320 µg/mL; MIC [9]: 80 µg/mL (≈ 579 µM)
COc1cc(Cc2cnc(N)nc2N)cc(OC)c1OC [Trimethoprim]	0.03 µg/mL (≈ 0.103 µM)				MIC [9]: 0.078 µg/mL (≈ 0.269 µM); MIC, minimum growth inhibitory concentration ([9]; LB agar containing ampicillin (50 μg/mL) and streptomycin (50 μg/mL)): 0.078 µg/mL (≈ 0.269 µM); concentration at which suppressor clones were evident [10]: 0.64 µg/mL
Nc1nc(N)c2c(Oc3ccc(F)cc3)cccc2n1 [Compound 3]	16 µg/mL (≈ 59.2 µM)				
N[C@@H]1CON=C1O [Cycloserine, D-cycloserine]					growth inhibitory concentration to which clones isolated from the screening pool were resistant [8]: 160 µg/mL; MIC [9]: 80 µg/mL (≈ 784 µM)
N#CC(C#N)=NNc1cc(C(F)(F)F)cc(C(F)(F)F)c1 [SEW04978]		0.2%	0.02%	32 µg/mL (≈ 105 µM)	growth inhibitory concentration to which clones isolated from the screening pool were resistant [8]: 64 µg/mL
OC(Cn1cncn1)(Cn1cncn1)c1ccc(F)cc1F [Fluconazole]					MIC [11]: 32 µg/mL
